From US11123350B2, “Metal delivery agents and therapeutic uses of the same” (THE UNIVERSITY OF MELBOURNE, priority 2006, dated 2021)

Assays:
[1] = tested on: APP-transfected Chinese Hamster Ovary (APP-CHO) cells; assay: Cellular copper uptake of Cu-BTSC complexes (ICP-MS); format: cell-based
Experimental: APP-transfected Chinese Hamster Ovary (APP-CHO) cells were treated with a range of [Cu(BTSC] complexes with dialkyl backbones at 1-50 μM for 6 hr in serum-free culture medium. Cells were washed twice with phosphate buffered saline (PBS) and cells scraped into fresh PBS and pelleted at 10,000 rpm in a microfuge for 5 min. Supernatant was discarded and cell pellets frozen at −70° C. until metal levels were determined by inductively-coupled plasma mass spectrometry (ICP-MS) at the Department of Pathology, University of Melbourne.

[2] = tested on: M17 human neuroblastoma cells; assay: Ionophore assay (metal uptake, ICPMS); format: cell-based; conditions: 5 hours at 37° C., reported versus internal control Clioquinol
Experimental: M17 human neuroblastoma cells were plated out on 6 well plates and left overnight. Enough cells were added to give approximately 70% confluent the following day of the experiment.
The test cells were incubated in 1 ml of media and compound mix for 5 hours at 37° C. At the end of the incubation the media was removed with a vacuum aspirator and 1 ml of PBS added to dislodge the cells. Cells are then put into Eppendorf tubes and pelleted. The PBS is removed and the remaining cell pellets are frozen at −20° C.
Cell pellets of similar levels are placed in 1.5 ml microfuge tubes. To each tube was added 50 μl of concentrated Nitric Acid (Aristar, BDH) to each cell pellet and allowed each cell pellet was allowed to digest overnight. The samples were heated for 20 min at 90° C. to complete the digestion. The volume of each sample was reduced to ˜45 ? l after digestion. To each was added 1 ml of the 1% Nitric Acid diluent. Measurements were made using a Varian UltraMass ICPMS instrument under operating conditions suitable for routine multi-element analysis.
The instrument was calibrated using Blank, 10, 50 and 100 ppb of a certified multi-element ICPMS standard solution (ICP-MS-CAI2-1, Accustandard) for Fe, Cu and Zn in 1% nitric acid. Used an certified internal standard solution containing 100 ppb Yttrium (Y 89) as an internal control (ICP-MS-IS-MIX1-1, Accustandard).

WT cells = assay: Dopamine induced cell death, WT cells (MTT); format: cell-based
Experimental: A series of trials were conducted in which the effect of CuGTSM on inhibiting Dopamine induced cell death were conducted on WT cells and A30P cells. The protocol used was as follows.
The cell line was maintained in OPTI-MEM (Gibco) supplemented with 10% fetal calf serum (FCS), Non-essential amino acids, sodium pyruvate and Penn/Strep. Cells were incubated at 37° C. in a humidified atmosphere of 95% air and 5% CO2. Cell assays were plated out into 48 well culture plates at 4×10^4 cells per well. Cells were left to settle overnight then incubated with drugs for 24h prior to being subjected to MTT assays for cell viability.
The viability of cells was assessed using an MTT assay. […] The mixture of media and reagents e.g. Dopamine was aspirated off and media containing 5 mg/mI MTT is added and the plate incubated for 1 h at 37° C. The remaining media/MTT solution is aspirated off and the cells were then solubilized with DMSO. The 48 well plate is then read at 595 nm on a plate reader.
In essence a series of WT cells and A30P cells were treated with a control, Dopamine, CuGTSM, Cu ATSM, and combinations of Dopamine and CuGTSM, and dopamine and CuATSM at various concentrations to determine the ability of the compound to act as an anti-oxidant and […] cell death. The results are shown in table 15 (WT cells) and Table 16 (A30P cells)

[3] = tested on: mice with 6-OHDA lesion of the SNpc; assay: 6-OHDA lesion Parkinson's disease model, amphetamine-induced rotation; format: in vivo; conditions: oral gavage 10 or 30 mg/kg daily, 7 days pre-lesion and 14 days post lesion
EAE mouse model = assay: Experimental autoimmune encephalomyelitis (EAE) mouse model of MS; format: in vivo; conditions: daily oral treatment
Excerpt: (§1) I. Cu(ATSM) is protective in mouse models of MS. The two most widely used mouse models of MS are the experimental autoimmune encephalomyelitis (EAE) and cuprizone models. Some features of progressive MS are evident in each model. Administration of Cu(ATSM) to these mice (daily oral treatment) established that: (a) Cu(ATSM) improved body weight changes and neurological symptoms evident in the EAE mouse model; (b) Cu(ATSM) improved body weight changes evident in the cuprizone mouse model; and (c) treating with Cu(ATSM) improves myelination in the corpus callosum of the cuprizone mouse model.

cuprizone mouse model = assay: Cuprizone mouse model of MS; format: in vivo; conditions: daily oral treatment
Excerpt: as §1

[4] = cited from earlier work
G93A-SOD1 mice = assay: G93A SOD1 ALS mice: survival and onset of paralysis

In the case of `CN=C([S-])N/N=C(C)/C(C)=N/NC([S-])=NC.[64Cu+2]` [Complex A2, copper(II)diacetylbis(N(4)-methylthiosemicarbazone)], the “fold increase in cellular copper levels compared to untreated control cells” value ([1]; 1-50 μM, 6 hr) is reported as 177±9 fold, the “cellular Copper level” value ([1]; treated, control 4.5) is reported as 796 ng/mg protein and the “Ionophore (% uptake of metal at 10 μm)” value [2] is reported as 157.1%. The “% recovery” value (WT cells; Dopamine 500 μm + complex 0.01 μM) was 64.28%, the “% recovery” value (WT cells; Dopamine 500 μm + complex 0.1 μM) was 103.13% and the “amphetamine-induced rotation versus control group” value [3] was “performed better”. The “body weight changes in the EAE mouse model” value (EAE mouse model) was “improved”, the “neurological symptoms in the EAE mouse model” value (EAE mouse model) was “improved” and the “body weight changes in the cuprizone mouse model” value (cuprizone mouse model) was “improved”. The “myelination in the corpus callosum” value (cuprizone mouse model) was “improves”, the “reduction potential E1/2” value ([4]; Cu(II) to Cu(I)) was −0.59 V and the “Cu(II)/Cu(I) reduction potential, harder to reduce than [Cu(GTSM)]” value ([4]; difference to [Cu(GTSM)]) was about 160 mV. The “onset of paralysis in ALS mice” value (G93A-SOD1 mice; 30 mg/kg gavage once daily (5 days/week)) was “significantly delays” and the “Increased Life Span” value (G93A-SOD1 mice; G93A-SOD1 mice, present results) was 31 to 33 days.
